Measurements from patent US5506259A, “β-mercapto-propanamide derivatives useful in the treatment of cardiovascular diseases” (Zambon Group S.p.A., priority 1993, dated 1996).

How the values were obtained:
[1] = biological target: T1, neutral endopeptidase enzyme (NEP) (Rattus norvegicus, UniProt P07861); experiment: In vitro NEP-inhibitory activity (inhibition of formation of [^3 H]-Tyr-Gly-Gly from [^3 H][Leu^5 ]-enkephaline in kidney cortex membranes); assay type: biochemical, male Sprague-Dawley rats; settings: rat kidney cortex membranes 5 μg/ml protein; [^3 H][Leu^5 ]-enkephaline 15 nM; Bestatin 1 mM; pH 7.4; 20 minutes at 30° C.
T1 construct: Membranes from kidney cortex were prepared according to the following procedure; from tissue; host or cells: kidney cortex membranes of male Sprague-Dawley rats
T1 sequence (P07861 1-750): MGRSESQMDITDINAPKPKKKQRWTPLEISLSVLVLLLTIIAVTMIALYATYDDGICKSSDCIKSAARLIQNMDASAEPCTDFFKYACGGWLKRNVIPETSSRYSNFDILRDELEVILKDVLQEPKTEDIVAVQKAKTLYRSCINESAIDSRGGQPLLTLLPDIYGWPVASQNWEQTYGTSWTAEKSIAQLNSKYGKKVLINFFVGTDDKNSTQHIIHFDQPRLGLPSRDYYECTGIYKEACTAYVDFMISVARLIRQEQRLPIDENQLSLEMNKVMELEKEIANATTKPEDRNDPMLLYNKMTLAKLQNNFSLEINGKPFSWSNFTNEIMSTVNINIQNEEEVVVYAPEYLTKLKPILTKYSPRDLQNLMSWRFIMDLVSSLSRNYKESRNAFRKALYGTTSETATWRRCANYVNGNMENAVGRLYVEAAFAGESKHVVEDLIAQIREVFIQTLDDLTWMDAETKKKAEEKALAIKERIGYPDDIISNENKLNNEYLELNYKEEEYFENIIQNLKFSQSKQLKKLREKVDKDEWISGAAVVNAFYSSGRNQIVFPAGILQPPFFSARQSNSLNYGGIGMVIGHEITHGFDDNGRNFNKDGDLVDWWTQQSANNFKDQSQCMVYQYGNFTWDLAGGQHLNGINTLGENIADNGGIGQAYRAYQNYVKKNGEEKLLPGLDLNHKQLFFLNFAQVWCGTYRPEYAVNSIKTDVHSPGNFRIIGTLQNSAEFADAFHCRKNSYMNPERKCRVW
Method: The NEP-inhibitory activity of the compounds of formula I was evaluated by means of in vitro tests as percentage of inhibition in the formation of [^3 H]-Tyr-Gly-Gly, a metabolite of [^3 H][Leu^5 ]-enkephaline(see example 26).
a) In vitro NEP-inhibitory activity
The NEP-inhibitory activity in vitro was evaluated according to the method reported in the literature by C. Llorens et al., Eur. J. Pharmacol., 69, (1981), 113-116.
Membranes from kidney cortex were prepared according to the following procedure.
By working at 0°-4° C. the kidneys were removed from killed male Sprague-Dawley rats weighing approximately 300 g.
Cortex was carefully dissected, finely minced and suspended in homogenization buffer (10 mM sodium phosphate pH 7.4 containing 1 mM MgCl2, 30 mM NaCl, 0.02% NaN3) 1:15 weight/volume.
The tissue was then homogenized for 30 seconds using an Ultra-Turrax homogenizer.
Approximately 10 ml of homogenate were layered over 10 ml of sucrose (41% weight/volume) and centrifuged at 31200 rpm for 30 minutes at 4° C. in a fixed angle rotor.
The membranes were collected from the buffer/sucrose interface, washed twice with 50 mM TRIS/HCl buffer (pH 7.4) and resuspended into the same buffer for storage.
The membranes were stored in small aliquots at -80° C. until use. The NEP-inhibitory activity was evaluated by using the following method.
Aliquots of the membrane suspension prepared as above described (concentration 5 μg/ml of proteins) were preincubated in the presence of an aminopeptidase inhibitor (Bestatin - 1 mM) for 10 minutes at 30° C.
[^3 H][Leu^5 ]-enkephaline (15 nM) and buffer TRIS/HCl pH 7.4 (50 mM) were added in order to obtain a final volume of 100 μl.
Incubation (20 minutes at 30° C.) was stopped by adding 0.1M HCl (100 μl).
The formation of the metabolite [^3 H]Tyr-Gly-Gly was quantified by chromatography on polystyrene columns (Porapak Q).
The percentage of inhibition of the metabolite formation in the membrane preparations treated with the compounds of formula I and the reference compounds in comparison to the untreated membrane preparations was expressed as IC50 value (nM).

[2] = biological target: T2, endothelin converting enzyme (ECE) (Oryctolagus cuniculus, UniProt A0A5F9CTJ8); experiment: In vitro ECE-inhibitory activity (human Big endothelin-induced contraction of rabbit left saphenous artery rings; inhibition of endothelin formation); assay type: cell-based, Male New Zealand rabbits; settings: human Big endothelin 3×10^-8 M, compound in contact 30 minutes, 37° C.
T2 construct: The left saphenous artery was removed and cleaned of the surrounding tissue; from tissue; host or cells: left saphenous artery rings of male New Zealand rabbits, with endothelium
T2 sequence (A0A5F9CTJ8 1-783): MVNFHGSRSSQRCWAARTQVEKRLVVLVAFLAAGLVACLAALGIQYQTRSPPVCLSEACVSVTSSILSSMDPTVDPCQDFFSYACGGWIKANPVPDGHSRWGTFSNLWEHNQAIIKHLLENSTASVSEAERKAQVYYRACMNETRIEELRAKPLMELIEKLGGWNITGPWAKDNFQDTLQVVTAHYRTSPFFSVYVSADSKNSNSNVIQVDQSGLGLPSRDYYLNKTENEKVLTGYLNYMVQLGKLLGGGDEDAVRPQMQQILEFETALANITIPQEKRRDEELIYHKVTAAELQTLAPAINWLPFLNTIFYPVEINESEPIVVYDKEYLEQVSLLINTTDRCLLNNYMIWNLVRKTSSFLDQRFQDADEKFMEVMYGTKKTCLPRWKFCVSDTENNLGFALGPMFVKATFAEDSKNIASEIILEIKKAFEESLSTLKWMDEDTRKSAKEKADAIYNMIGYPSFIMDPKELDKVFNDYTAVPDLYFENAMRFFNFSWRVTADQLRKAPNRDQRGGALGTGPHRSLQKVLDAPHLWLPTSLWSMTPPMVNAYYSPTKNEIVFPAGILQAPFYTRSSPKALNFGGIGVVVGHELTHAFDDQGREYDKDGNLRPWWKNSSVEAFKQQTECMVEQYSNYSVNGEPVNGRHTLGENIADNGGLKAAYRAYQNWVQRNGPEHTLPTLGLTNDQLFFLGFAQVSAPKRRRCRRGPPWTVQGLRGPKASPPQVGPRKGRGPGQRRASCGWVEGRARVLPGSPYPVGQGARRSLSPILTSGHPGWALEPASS
Method: b) In vitro ECE-inhibitory activity
The ECE-inhibitory activity in vitro was evaluated according to the method reported in the literature by M. Auget et al., Eur. J. Pharmacol., 224, (1992), 101-102.
Male New Zealand rabbits (2.5-3 Kg) were sacrificed with an excess of pentobarbital and blood was drawn.
The left saphenous artery was removed and cleaned of the surrounding tissue, cut into 2-3 mm length rings and suspended in 25 ml baths containing Krebs-Henseleit solution at 37° C. and oxygenated with O2 containing 5% CO2. This solution was composed of (mM); NaCl, 118; KCl, 4.7; CaCl2, 2.5; KH2 PO4, 1.2; MgSO4, 1.2; NaHCO3, […]; glucose, 11. The preparations were kept under tension and readjusted to 1 g during the equilibration period (1 hour).
After said period, the preparations were exposed to a submaximal concentration of norepinephrine 1 μM which was repeated every 30 minutes until the response was stable. A concentration of acetylcholine 10 μM on the contraction of norepinephrine verified the presence of the endothelium.
After 30 minutes from the last contraction due to norepinephrine, a concentration of human Big endothelin 3×10^-8 M was administered. After reaching the plateau the preparations were washed for 30 minutes and a concentration 1 μM of the compound to be tested or of its vehicle was administered keeping it in contact for 30 minutes, after that a concentration of Big endothelin 3×10^-8 M was administered again. The percentage of ECE-inhibition was expressed as IC50 value (nM).

SMILES	IC50 [1] [nM]	IC50 [2] [nM]
O=C(O)c1cccc(NC(=O)C(CS)Cc2ccccc2)c1 (stereo not drawn) [R-1, N-(3-carboxyphenyl)-3-mercapto-2-benzyl-propanamide, reference compound]	3.12	–
O=C(O)Cc1csc(NC(=O)C(CS)Cc2ccccc2)n1 (stereo not drawn) [R-2, N-(4-carboxymethyl-2-thiazolyl)-3-mercapto-2-benzyl-propanamide, reference compound]	8.8	–
O=C(O)c1cc(NC(=O)C(CS)Cc2ccccc2)cs1 (stereo not drawn) [compound 2, N-(2-carboxy-4-thienyl)-3-mercapto-2-benzyl-propanamide]	1.5	2
O=C(O)c1cc(NC(=O)C(CS)Cc2cccnc2)cs1 (stereo not drawn) [compound 6, N-(2-carboxy-4-thienyl)-3-mercapto-2-(3-pyridylmethyl)-propanamide]	12.6	1

More lines, now with the values ahead:

IC50 [1] [nM]	IC50 [2] [nM]	SMILES
2.1	2	O=C(O)c1cc(NC(=O)C(CS)Cc2ccccc2)c[nH]1 (stereo not drawn) [compound 4, N-(2-carboxy-4-pyrrolyl)-3-mercapto-2-benzyl-propanamide]
2.7	4	O=C(O)c1cc(NC(=O)C(CS)Cc2ccc(Cl)cc2)c[nH]1 (stereo not drawn) [compound 9, N-(2-carboxy-4-pyrrolyl)-2-(4-chlorobenzyl)-3-mercapto-propanamide]
5	3	COc1cccc(CC(CS)C(=O)Nc2c[nH]c(C(=O)O)c2)c1 (stereo not drawn) [compound 13, N-(2-carboxy-4-pyrrolyl)-3-mercapto-2-(3-methoxybenzyl)-propanamide]
